Values of other authors as cited in US11324751B1 (Janssen Pharmaceutica NV, priority 2020, dated 2022).

- water solubility: extreme low water solubility
Compound: CCCCCCCCCCCCCCCC(=O)OC1CCCn2c1nc(C)c(CCN1CCC(c3noc4cc(F)ccc34)CC1)c2=O (racemic) [paliperidone palmitate, (=)-3-[2-[4-(6-fluoro-1,2-benzisoxazol-3-yl)-1-piperidinyl]ethyl]-6,7,8,9-tetrahydro-2-methyl-4-oxo-4H-pyrido[1,2-c]pyrimidin-9-yl hexadecanoate]
